Test results published in PMC6108829 (Environmental Health Perspectives, 2018).
Values joined by “and” are separate entries in the source; they are usually repeats but may differ in a detail not shown here. Equal values may be shown once. Read-outs that look alike come from different tables or passages of the source. Marks after values point to notes of the source that are not given here.

Tests used:
[1] = cited from earlier work
liver [2] = details: cited from earlier work
[3] = system: human breast-cancer cell lines; design: method as in Walsh et al. (2005); details: ref Walsh et al. (2005), read-out: EC50 for an increase of calcium ion concentration; cited from earlier work
[4] = ref Csanády et al. 2002; cited from earlier work
[5] = PBPK model parametrization and calibration with biomonitoring data; design: species or system human; details: basic BPA model
Description: It consists of the compartments titled serum, liver, fat, skin, gonads, brain, “richly perfused tissue,” “slowly perfused tissue”, and two single-compartment submodules for BPA-g and BPA-s in serum (see Figure 2). In the compartment titled “richly perfused tissue,” compartments were lumped with a perfusion greater than 0.1mL/min/g tissue (heart, kidneys, small and large intestine, pancreas, spleen, and stomach), and in the compartment titled “slowly perfused tissue,” compartments were lumped with a perfusion smaller than 0.1mL/min/g tissue (muscle and skeleton) ([Edginton et al. 2006]; [ICRP 2002], see Table S1 for the aggregated parameters). […] Fixing the scaling error caused the aforementioned discrepancy, and we had to review and readjust the model parameters to the biomonitoring data.
In a first step to readjust and further develop the PBPK model, we collected all studies that investigated the metabolism parameters used in the model and gathered data from different studies that measured the same metabolism routes (see Table S2). […] For this purpose, we calculated the mean relative deviation (MRD) and average fold error (AFE) to assess precision and bias of the model predictions using Equations 1 and 2 ([Sheiner and Beal 1981]), as done previously ([Ito and Houston 2005]; [Vogt 2014]; [Yang et al. 2015]). […]

[6] = cited from earlier work; remark: listed apart in the source
small intestine = details: cited from earlier work
[7] = in vivo; cited from earlier work
[8] = cited from earlier work; remark: listed apart in the source
[9] = Margin of exposure (MOE = EC50/Cmax) back-of-the-envelope calculation; design: species or system human
[10] = determined experimentally, ref Doerge et al. (2011), cited from earlier work
liver [11] = details: ref Kurebayashi et al. (2010), cited from earlier work
[12] = ref Schönfelder et al. (2002); cited from earlier work
[13] = basic PBPK model, ref Yang et al. (2015)
[14] = EC50 (Kitamura et al. 2005)/highest Cmax of basic PBPK model (Table 9)

In the case of `CC(C)(c1ccc(O)cc1)c1ccc(O)cc1` [BPA, bisphenol A], the “Oral uptake from small intestine to liver” value ([1]; basic PBPK model, ref Kortejärvi et al. (2007)) is listed as 2.10^a 1/h/kg BW^−0.25, the EHR as glucuronide [1, 13] is listed as 0.20^f 1/h/kg BW^−0.25 and the EHR unconjugated [1, 13] is listed as 0.20^f 1/h/kg BW^−0.25. The “Fraction of glucuronide in liver taken up directly into serum (no EHR)” value [1, 13] was 0.9^f, the Urinary excretion glucuronide [1, 13] was 0.35^f 1/h/kg BW^0.75 and the Urinary excretion ([1]; unconjugated, basic PBPK model, ref Yang et al. (2015)) was 0.060^f 1/h/kg BW^0.75. The EHR share ([1]; used in BPA PBPK model, ref Yang et al. (2015)) was 10%, the “Hepatic glucuronidation vmax ±SD” value (liver [2]; arithmetic mean of female and male kinetics, ref Elsby et al. (2001)) was 333 ± 21 nmol/h/mg microsomal protein and the “Hepatic glucuronidation vmax ±SD” value (liver [2]; arithmetic mean of female and male kinetics, ref Kuester and Sipes (2007)) was 85.2 ± 31.4 nmol/h/mg microsomal protein. For the same compound, the “Hepatic glucuronidation vmax ±SD” value (liver [2]; arithmetic mean of female and male kinetics, ref Mazur et al. (2010)) was 190 ± 16.9 nmol/h/mg microsomal protein, the “Hepatic glucuronidation vmax range” value (liver [2]; range of published values, ref Coughlin et al. (2012), Kurebayashi et al. (2010), Trdan Lušin et al. (2012), Elsby et al. (2001), Kuester and Sipes (2007), Mazur et al. (2010), Street et al. (2017)) was 1,270–16,300^c nmol/h/g liver and the Km (liver [2]; read-out: Hepatic glucuronidation Km ±SD, arithmetic mean of female and male kinetics, ref Elsby et al. (2001)) was 71.9 µM. The Km (liver [2]; read-out: Hepatic glucuronidation Km ±SD, arithmetic mean of female and male kinetics, ref Kuester and Sipes (2007)) was 8.5 µM, the Km (liver [2]; read-out: Hepatic glucuronidation Km ±SD, arithmetic mean of female and male kinetics, ref Mazur et al. (2010)) was 4.25 µM and the Km (liver [2]; read-out: Hepatic glucuronidation Km ±SD, ref Street et al. (2017)) was 23 µM. For the same compound, the Km (liver [2]; read-out: Hepatic glucuronidation Km ±SD, ref Trdan Lušin et al. (2012)) was 8.9 µM, the Km (liver [2]; read-out: Hepatic glucuronidation Km, n=1, ref Kurebayashi et al. (2010)) was 5.3 µM and the Km (liver [2]; read-out: Hepatic glucuronidation Km, used in basic model, ref Coughlin et al. (2012)) was 45.8 µM. The “Hepatic glucuronidation vmax - used in basic model” value (liver [2]; ref Coughlin et al. (2012)) was 9,040^a nmol/h/g liver, the “Hepatic glucuronidation vmax ±SD” value (liver [2]; ref Coughlin et al. (2012)) was 283 ± 18 nmol/h/mg microsomal protein and the Hepatic glucuronidation vmax (liver [2]; ref Kurebayashi et al. (2010)) was 39.8 nmol/h/mg microsomal protein. For the same compound, the “Hepatic glucuronidation vmax ±SD” value (liver [2]; ref Street et al. (2017)) was 270 ± 60 nmol/h/mg microsomal protein, the “Hepatic glucuronidation vmax ±SD” value (liver [2]; ref Trdan Lušin et al. (2012)) was 510 ± 18 nmol/h/mg microsomal protein and the EC50 [3] was 0.1 nM. The “fu (unbound fraction)” value [4] was 0.06, the “vmax of hepatic sulfation, times lower than that of hepatic glucuronidation” value [5] was “about 60 times” and the logPow ([6]; mean, ref Bayer 1996, Korenman 1973) was 3.36. For the same compound, the pKa ([6]; ref Bautista-Toledo et al. 2005) was 10.4 and ~10.4, the Km (small intestine; read-out: Glucuronidation in enterocytes / intestinal glucuronidation Km, used in basic model, ref Trdan Lušin et al. (2012)) was 58.4 µM and the Km (small intestine; read-out: Glucuronidation in enterocytes Km range, ref Trdan Lušin et al. (2012), Mazur et al. (2010)) was 58.4 to 80.1 µM. The Km (small intestine; read-out: Intestinal glucuronidation Km ±SD, ref Mazur et al. (2010)) was 80.1 µM, the “Intestinal glucuronidation vmax ±SD” value (small intestine; ref Mazur et al. (2010)) was 29.2 ± 7.2 nmol/h/mg microsomal protein and the “Glucuronidation in enterocytes vmax range” value (small intestine; ref Trdan Lušin et al. (2012), Mazur et al. (2010)) was 125–361^j nmol/h/g liver. The “Glucuronidation in enterocytes vmax - used in basic model” value (small intestine; ref Trdan Lušin et al. (2012)) was 361^i nmol/h/g bw, the “Intestinal glucuronidation vmax ±SD” value (small intestine; ref Trdan Lušin et al. (2012)) was 84.0 ± 6.0 nmol/h/mg microsomal protein and the “AUC, mean (range), measured” value [7] was 15.5 (0.986–23.2) nM*h for 1.5 h. The Cmax [7] was 16.5 nM, the dermal absorption fraction ([8]; dissolved in ethanol, used for PCPs, ref Biedermann et al. 2010) was 60% and the reported dermal absorption ([8]; range over several studies, different study designs and solvents) was 9.3% to 60. The MOE in gonads [9, 14] was 4,670, the MOE in serum [9, 14] was 12,000 and the “MOE in serum of females” value ([9]; EC50 of Walsh et al. (2005), Cmax P95/P95) was 1.25. The “MOE in fetal serum” value ([9]; EC50 of Walsh et al. (2005), worst-case accumulation in the fetus) was 0.179, the “PTS richly perfused tissue/serum” value ([10]; value for brain used) was 2.8 and the “PTS slowly perfused tissue/serum” value ([10]; value for muscle used) was 2.7. The Km (liver [11]; read-out: Hepatic sulfation Km) was 10.1 µM, the Hepatic sulfation vmax (liver [11]) was 149^n nmol/h/g liver and the “fetal plasma concentration, times higher than corresponding maternal plasma” value [12] was “up to 7 times”.
